Holding throughout (assay): KinomeScan profiling
What all share (type): binding

One assay has as its target T1, ANKK1 (Homo sapiens, UniProt Q8NFD2).
T1 construct: purchased KinomeScan®
T1 sequence (Q8NFD2 1-765): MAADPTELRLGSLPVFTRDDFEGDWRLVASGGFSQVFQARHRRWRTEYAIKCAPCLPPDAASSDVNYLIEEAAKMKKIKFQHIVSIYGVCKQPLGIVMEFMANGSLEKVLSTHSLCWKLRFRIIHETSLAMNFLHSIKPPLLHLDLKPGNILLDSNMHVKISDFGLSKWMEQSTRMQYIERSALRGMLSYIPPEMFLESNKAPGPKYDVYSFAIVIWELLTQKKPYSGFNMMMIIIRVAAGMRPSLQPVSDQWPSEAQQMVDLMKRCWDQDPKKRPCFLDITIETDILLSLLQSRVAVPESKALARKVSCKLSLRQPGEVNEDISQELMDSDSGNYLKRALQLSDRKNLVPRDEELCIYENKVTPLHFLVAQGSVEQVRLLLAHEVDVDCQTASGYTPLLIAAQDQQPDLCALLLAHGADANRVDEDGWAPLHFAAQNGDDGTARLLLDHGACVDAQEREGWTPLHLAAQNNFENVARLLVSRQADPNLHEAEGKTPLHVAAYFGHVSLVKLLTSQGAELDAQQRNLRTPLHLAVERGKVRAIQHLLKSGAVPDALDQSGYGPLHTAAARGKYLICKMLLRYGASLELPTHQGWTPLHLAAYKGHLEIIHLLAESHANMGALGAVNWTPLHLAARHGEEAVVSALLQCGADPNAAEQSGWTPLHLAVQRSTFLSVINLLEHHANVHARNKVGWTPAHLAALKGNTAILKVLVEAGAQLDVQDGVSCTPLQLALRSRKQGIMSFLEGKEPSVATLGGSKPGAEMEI
The conditions noted are these: ANKK1, 1 μM; read-out: % control. An outline of the steps: (§1)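 At 1 μM in DMSO, compounds are run through a broad 468-member kinase panel. The luminescent read-out is normalised so that vehicle gives 100% and a positive control gives 0%; any kinase falling below 35% is treated as a target.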

For a further assay, the target named is BUB1 (Homo sapiens, UniProt O43683). The conditions noted are these: BUB1, 1 μM; read-out: % control. In a few lines: as §1
Sequence of BUB1 (O43683 whole entry): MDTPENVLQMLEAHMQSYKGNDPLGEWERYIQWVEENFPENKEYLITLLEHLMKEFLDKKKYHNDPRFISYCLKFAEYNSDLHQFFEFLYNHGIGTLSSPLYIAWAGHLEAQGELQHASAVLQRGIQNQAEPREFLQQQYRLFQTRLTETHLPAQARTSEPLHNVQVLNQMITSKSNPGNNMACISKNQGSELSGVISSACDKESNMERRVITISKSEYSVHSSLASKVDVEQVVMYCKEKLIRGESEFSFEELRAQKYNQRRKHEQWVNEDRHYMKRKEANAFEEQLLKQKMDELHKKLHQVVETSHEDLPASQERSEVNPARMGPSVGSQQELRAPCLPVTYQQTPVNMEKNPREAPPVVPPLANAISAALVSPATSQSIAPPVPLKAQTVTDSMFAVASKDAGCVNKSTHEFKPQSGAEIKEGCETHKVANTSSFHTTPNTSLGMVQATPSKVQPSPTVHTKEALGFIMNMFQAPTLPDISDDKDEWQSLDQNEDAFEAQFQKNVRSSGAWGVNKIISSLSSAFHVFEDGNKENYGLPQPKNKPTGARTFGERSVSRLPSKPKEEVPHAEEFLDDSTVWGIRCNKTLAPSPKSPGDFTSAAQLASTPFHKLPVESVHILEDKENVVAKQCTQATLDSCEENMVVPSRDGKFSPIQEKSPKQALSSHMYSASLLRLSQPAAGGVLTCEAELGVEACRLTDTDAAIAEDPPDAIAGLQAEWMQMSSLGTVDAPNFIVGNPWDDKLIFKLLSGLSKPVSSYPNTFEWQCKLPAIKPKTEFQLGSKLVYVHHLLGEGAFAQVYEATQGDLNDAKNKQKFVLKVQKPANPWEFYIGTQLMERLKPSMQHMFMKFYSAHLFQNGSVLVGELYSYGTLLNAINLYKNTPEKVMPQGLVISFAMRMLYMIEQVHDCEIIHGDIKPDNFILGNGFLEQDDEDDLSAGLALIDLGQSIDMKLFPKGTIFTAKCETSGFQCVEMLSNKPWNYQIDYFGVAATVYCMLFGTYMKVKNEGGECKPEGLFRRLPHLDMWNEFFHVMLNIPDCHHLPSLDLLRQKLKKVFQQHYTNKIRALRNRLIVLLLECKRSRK
Another assay has as its target FAK (Homo sapiens, UniProt Q05397). The note with it: read-out: % control. In a few lines:
as §1

In a further assay the target is MAP3K4 (Homo sapiens, UniProt Q9Y6R4). The note with it: MAP3K4, 1 μM; read-out: % control. An outline of the steps: as §1
The target of another assay is T2, MEK5 (Homo sapiens, UniProt Q13163).
T2 sequence (Q13163 1-448): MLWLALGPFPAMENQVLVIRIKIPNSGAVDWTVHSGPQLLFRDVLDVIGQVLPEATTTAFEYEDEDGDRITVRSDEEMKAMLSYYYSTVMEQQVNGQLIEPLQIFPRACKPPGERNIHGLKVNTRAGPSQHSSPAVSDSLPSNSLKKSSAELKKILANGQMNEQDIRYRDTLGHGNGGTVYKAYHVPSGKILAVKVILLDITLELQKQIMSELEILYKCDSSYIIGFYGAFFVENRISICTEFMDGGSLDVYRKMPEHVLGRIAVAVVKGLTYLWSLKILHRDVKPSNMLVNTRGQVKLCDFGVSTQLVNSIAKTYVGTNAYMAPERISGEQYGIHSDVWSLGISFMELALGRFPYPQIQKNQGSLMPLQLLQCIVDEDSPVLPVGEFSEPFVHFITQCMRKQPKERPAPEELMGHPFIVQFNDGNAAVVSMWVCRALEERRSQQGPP
The conditions noted are these: MEK5, 1 μM; read-out: % control. In a few lines:
as §1

In the next assay the target is T3, PRKCI (Homo sapiens, UniProt P41743).
T3 sequence (P41743 1-596): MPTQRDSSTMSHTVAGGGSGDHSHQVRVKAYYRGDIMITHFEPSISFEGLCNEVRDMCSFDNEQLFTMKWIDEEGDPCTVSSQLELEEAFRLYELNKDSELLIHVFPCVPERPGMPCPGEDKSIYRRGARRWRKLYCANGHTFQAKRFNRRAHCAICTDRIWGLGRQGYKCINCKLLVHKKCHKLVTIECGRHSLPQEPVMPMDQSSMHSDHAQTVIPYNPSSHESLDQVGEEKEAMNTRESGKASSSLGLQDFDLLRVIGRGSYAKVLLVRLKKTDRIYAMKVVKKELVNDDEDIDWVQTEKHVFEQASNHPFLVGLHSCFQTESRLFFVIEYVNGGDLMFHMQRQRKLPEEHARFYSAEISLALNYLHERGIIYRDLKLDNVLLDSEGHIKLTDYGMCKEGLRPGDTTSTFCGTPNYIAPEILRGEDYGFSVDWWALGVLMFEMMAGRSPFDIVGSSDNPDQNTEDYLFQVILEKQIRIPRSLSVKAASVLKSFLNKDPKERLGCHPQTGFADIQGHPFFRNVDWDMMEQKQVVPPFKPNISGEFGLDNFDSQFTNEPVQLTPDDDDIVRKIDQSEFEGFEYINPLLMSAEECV
The note with it: read-out: % control. An outline of the steps: as §1

A further assay has as its target PYK2 (Homo sapiens, UniProt Q14289). The conditions noted are these: PYK2, 1 μM; read-out: % control. An outline of the steps:
as §1

For another assay, the target named is WNK2 (Homo sapiens, UniProt Q9Y3S1). The conditions noted are these: WNK2, 1 μM; read-out: % control. In a few lines: as §1
Sequence of WNK2 (Q9Y3S1 whole entry): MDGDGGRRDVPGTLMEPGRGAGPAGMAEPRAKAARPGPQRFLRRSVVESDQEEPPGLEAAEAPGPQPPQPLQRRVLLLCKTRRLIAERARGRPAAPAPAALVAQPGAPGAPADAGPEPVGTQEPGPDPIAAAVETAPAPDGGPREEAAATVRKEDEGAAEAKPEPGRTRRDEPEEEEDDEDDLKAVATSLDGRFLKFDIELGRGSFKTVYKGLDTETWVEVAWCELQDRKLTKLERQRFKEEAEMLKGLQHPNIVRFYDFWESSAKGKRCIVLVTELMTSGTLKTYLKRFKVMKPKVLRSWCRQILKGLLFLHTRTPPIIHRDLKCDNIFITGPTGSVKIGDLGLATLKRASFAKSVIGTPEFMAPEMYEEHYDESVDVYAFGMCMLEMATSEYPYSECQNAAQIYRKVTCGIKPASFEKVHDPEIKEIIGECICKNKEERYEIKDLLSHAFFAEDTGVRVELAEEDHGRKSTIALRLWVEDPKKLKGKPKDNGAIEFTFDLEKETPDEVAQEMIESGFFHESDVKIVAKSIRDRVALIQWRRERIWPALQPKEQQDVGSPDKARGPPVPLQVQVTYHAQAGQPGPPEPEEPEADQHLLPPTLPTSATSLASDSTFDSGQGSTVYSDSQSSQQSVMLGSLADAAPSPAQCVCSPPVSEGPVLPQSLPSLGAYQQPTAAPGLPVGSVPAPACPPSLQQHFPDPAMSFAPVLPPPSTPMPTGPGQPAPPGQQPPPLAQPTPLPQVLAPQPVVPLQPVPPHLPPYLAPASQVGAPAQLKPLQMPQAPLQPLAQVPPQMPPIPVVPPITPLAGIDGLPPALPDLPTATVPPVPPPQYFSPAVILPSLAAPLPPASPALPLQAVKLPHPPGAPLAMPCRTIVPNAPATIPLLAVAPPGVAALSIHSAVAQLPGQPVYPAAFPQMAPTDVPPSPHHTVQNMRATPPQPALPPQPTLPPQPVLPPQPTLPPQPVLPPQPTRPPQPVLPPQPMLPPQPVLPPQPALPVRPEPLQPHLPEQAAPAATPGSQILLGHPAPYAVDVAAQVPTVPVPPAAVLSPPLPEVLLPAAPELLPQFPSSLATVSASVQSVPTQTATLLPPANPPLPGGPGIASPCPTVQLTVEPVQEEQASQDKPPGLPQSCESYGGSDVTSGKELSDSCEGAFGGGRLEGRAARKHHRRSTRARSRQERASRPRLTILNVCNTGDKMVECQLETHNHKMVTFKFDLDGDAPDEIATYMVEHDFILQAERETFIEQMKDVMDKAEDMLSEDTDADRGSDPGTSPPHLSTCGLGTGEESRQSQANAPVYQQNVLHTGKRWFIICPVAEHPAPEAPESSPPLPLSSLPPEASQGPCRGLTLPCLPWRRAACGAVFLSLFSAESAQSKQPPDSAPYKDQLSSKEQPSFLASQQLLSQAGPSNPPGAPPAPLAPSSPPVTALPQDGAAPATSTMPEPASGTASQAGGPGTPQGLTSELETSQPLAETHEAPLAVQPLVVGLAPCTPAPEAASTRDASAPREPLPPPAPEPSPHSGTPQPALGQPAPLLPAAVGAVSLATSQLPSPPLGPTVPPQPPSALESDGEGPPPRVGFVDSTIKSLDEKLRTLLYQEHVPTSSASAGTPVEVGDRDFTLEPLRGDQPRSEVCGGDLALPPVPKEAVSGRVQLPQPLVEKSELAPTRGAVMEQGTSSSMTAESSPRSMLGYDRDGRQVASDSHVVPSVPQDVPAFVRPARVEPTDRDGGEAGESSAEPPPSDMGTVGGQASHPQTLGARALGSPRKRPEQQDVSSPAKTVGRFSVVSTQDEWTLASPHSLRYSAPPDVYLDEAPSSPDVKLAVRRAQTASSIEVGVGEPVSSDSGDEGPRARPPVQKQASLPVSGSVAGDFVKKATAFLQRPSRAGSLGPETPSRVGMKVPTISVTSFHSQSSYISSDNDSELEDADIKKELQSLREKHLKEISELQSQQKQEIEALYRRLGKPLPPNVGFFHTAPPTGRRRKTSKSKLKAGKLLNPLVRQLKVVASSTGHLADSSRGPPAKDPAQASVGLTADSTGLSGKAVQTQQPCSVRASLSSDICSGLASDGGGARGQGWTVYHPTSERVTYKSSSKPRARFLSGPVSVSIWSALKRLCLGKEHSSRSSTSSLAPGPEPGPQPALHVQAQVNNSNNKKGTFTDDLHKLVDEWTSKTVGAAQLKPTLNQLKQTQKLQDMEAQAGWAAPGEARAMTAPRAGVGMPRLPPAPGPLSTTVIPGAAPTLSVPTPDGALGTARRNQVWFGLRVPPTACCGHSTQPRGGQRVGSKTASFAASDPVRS
The target of the next assay is T4, p38-gamma (Homo sapiens, UniProt P53778).
T4 sequence (P53778 1-367): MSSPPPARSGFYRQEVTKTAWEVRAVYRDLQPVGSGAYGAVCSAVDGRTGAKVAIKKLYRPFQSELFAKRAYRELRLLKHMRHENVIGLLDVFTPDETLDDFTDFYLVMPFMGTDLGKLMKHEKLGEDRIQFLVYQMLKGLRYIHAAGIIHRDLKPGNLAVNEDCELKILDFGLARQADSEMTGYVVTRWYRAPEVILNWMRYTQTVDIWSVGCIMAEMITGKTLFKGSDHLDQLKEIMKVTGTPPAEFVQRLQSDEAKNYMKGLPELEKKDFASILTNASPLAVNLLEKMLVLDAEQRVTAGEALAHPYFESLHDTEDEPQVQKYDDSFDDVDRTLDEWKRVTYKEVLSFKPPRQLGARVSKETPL
The note with it: read-out: % control. An outline of the steps: as §1

Sequence of PYK2 (Q14289 whole entry): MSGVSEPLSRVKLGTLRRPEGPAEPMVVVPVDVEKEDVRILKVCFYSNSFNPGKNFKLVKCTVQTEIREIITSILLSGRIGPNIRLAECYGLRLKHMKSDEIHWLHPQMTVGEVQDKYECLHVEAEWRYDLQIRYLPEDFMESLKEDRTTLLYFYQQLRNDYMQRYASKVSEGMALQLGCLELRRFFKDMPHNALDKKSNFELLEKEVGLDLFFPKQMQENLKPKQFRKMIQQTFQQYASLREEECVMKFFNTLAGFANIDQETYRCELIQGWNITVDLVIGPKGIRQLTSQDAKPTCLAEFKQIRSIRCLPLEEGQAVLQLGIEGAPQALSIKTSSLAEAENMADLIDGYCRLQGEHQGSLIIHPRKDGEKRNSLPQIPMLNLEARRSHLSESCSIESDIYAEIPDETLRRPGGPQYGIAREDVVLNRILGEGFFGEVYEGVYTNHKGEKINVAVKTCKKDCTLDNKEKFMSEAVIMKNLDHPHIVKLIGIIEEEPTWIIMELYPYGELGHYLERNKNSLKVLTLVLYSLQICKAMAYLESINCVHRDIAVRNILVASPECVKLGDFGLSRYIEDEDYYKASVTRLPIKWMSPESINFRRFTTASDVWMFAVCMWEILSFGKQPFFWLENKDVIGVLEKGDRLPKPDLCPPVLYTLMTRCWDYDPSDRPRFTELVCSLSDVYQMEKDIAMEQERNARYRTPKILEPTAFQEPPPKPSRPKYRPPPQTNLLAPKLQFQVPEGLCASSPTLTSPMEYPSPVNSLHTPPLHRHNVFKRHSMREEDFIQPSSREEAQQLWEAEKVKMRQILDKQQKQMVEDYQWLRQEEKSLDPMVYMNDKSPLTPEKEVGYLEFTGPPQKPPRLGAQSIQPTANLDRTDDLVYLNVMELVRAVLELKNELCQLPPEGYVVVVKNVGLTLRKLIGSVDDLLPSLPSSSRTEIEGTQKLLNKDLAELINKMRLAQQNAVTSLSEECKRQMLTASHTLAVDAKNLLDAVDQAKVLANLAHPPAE

In the case of `CNc1c(-c2ccc(C(=O)N3CCC(N4CCOCC4)CC3)cc2)cnc2[nH]cc(Cl)c12` [Compound 96, (4-(3-chloro-4-(methylamino)-1H-pyrrolo[2,3-b]pyridin-5-yl)phenyl)(4-morpholinopiperidin-1-yl)methanone], the remaining binding at 1 µM stood at 51% on ANKK1; 86% at BUB1; 65% on FAK; 68% at MAP3K4; 7.3% on MEK5; 69% at PRKCI. Moreover, the remaining binding at 1 µM was 92% at PYK2, 100% at WNK2 and 92% at p38-gamma.

Turning to `O=C(c1ccc(-c2cnc3[nH]cc(Cl)c3c2NC2CCCC2)cc1)N1CCC(N2CCOCC2)CC1` [Compound 101, (4-(3-chloro-4-(cyclopentylamino)-1H-pyrrolo[2,3-b]pyridin-5-yl)phenyl)(4-morpholinopiperidin-1-yl)methanone], the remaining binding at 1 µM on ANKK1 was determined as 100%; at BUB1, 100%; at FAK, 71%; at MAP3K4, 71%; at MEK5, 100%; on PRKCI, 100%. For the same molecule, the remaining binding at 1 µM on PYK2 was found to be 78%; at WNK2 it was 100%; at p38-gamma, 79%.

Regarding `CNc1c(-c2cnn([C@H]3CCN(C(C)=O)C[C@@H]3F)c2)cnc2[nH]cc(Cl)c12` [Compound 77, 1-((3S,4S)-4-(4-(3-chloro-4-(methylamino)-1H-pyrrolo[2,3-b]pyridin-5-yl)-1H-pyrazol-1-yl)-3-fluoropiperidin-1-yl)ethan-1-one], the remaining binding at 1 µM on ANKK1 was found to be 73%; at BUB1, 80%; at FAK it was 90%; at MAP3K4, 91%; on MEK5, 3.2%; at PRKCI it was 67%. The remaining binding at 1 µM was determined as 89% at PYK2, 92% on WNK2 and 97% at p38-gamma.

(Values after patent publication US12275731B2, “Azaindole inhibitors of wild-type and mutant forms of LRRK2” (DANA-FARBER CANCER INSTITUTE, INC., priority 2018, dated 2025).)
